One data set in a line: Cell cycle progression. As to conditions: unpublished data. Format: cell-based.
Data set [1] concerns Melanoma (A 375, B16-F1) and Prostate Cancer Cells (DU145, PC-3, LNCaP, PPC-1). As to the kind of experiment: Antiproliferative activity over melanoma and prostate cancer cell lines. The data set is classed as cell-based, human and mouse.
A further data set concerns DU 145 cells. As to the kind of experiment: SRB cytotoxicity assay, DU 145 prostate cancer. The data set is classed as cell-based, human. As to conditions: read-out: IC50 ± SEM (μM) DU 145, Table 2, 96 h. (In general: The SRB assay estimates cell density from bound dye.)
The subject of the next data set is PPC-1 cells. As to the kind of experiment: SRB cytotoxicity assay, PPC-1 prostate cancer. The data set is classed as cell-based, human. The note with it: read-out: IC50 ± SEM (μM) PPC-1, Table 2, 96 h.
A further data set relates to A375 cells. In words: SRB cytotoxicity assay, A375 melanoma. Format: cell-based, human. As to conditions: read-out: IC50 ± SEM (μM) A375, Table 2, 48 h.
The subject of the next data set is B16-F1 cells. In words: SRB cytotoxicity assay, B16-F1 melanoma. The data set is classed as cell-based, mouse. The note with it: read-out: IC50 ± SEM (μM) B16-F1, Table 2, 48 h.
The next data set deals with LNCaP cells. As to the kind of experiment: SRB cytotoxicity assay, LNCaP prostate cancer. The data set is classed as cell-based, human. The note with it: read-out: IC50 ± SEM (μM) LNCaP, Table 2, 96 h.
For a further data set, the system named is CCRF-CEM (Leukemia). As to the kind of experiment: NCI-60 human tumor cell line screen, CCRF-CEM. Format: cell-based. As to conditions: read-out: IC50 NCI-60, CCRF-CEM, lowest of the NCI-60 range.
Another data set is described as follows: Water solubility. Format: physicochemical.

For `COc1cc(C(=O)c2csc(-c3ccccc3)n2)cc(OC)c1OC` [8f, (2-Phenyl-thiazol-4-yl)-(3,4,5-trimethoxy-phenyl)-methanone], the “cell cycle effect (in words)” value in the data set “Cell cycle progression” was “significant increase in G2/M phase arrest”.
For `COc1cc(NC(=O)c2csc(-c3ccccc3)n2)cc(OC)c1OC` [compound 5, 2-Phenyl-N-(3,4,5-trimethoxyphenyl)thiazole-4-carboxamide], the “antiproliferative activity (in words)” value in data set [1] is given as “did not show any cytotoxicity against either cancer cell line tested”.
As for `COc1cc(OC)cc(C(=O)c2csc(-c3ccccc3)n2)c1` [8g, (3,5-Dimethoxyphenyl)(2-phenylthiazol-4-yl)-methanone], in data set [1] (against six different cell lines, relative to 8f), the “fold lower average cytotoxicity than 8f” value is recorded as 6 fold.
Take `COc1cc(C(=O)c2csc(-c3ncccn3)n2)cc(OC)c1OC` [8y, [2-(Pyrimidin-2-yl)-thiazol-4-yl]-(3,4,5-trimethoxyphenyl)-methanone]: the “antiproliferative activity (in words)” value in data set [1] is listed as “kept partial activity against both cancer cells”.
`COc1cc(NC(=O)[C@@H]2CSC(c3cc(OC)c(OC)c(OC)c3)N2)cc(OC)c1OC` (mixture of isomers) [2b, (2RS, 4R)-N,2-bis(3,4,5-trimethoxyphenyl)thiazolidine-4-carboxamide]: in [1], the “antiproliferative activity (in words)” value is “the potency against both cancer cell lines was lost”.
Take `COc1cc(C(=O)c2csc(-c3ccc([N+](=O)[O-])cc3)n2)cc(OC)c1OC` [8p, [2-(4-Nitrophenyl)-thiazol-4-yl]-(3,4,5-trimethoxyphenyl)-methanone]: the “antiproliferative activity (in words)” value in [1] is on record as “comparable antiproliferative activity”.
Consider `COc1cc(C(=O)c2csc(-c3ccc(C#N)cc3)n2)cc(OC)c1OC` [8q, 4-[4-(3,4,5-Trimethoxybenzoyl)-thiazol-2-yl]-benzonitrile], for which the “antiproliferative activity (in words)” value in [1] is on record as “comparable antiproliferative activity”.
For `COc1cc(C(=O)c2cscn2)cc(OC)c1OC` [compound 10, Thiazol-4-yl-(3,4,5-trimethoxy-phenyl)-methanone], in data set [1], the “antiproliferative activity (in words)” value was “total loss of activity”.
As a reminder, the IC50 is the concentration needed to halve the response being measured. On to “(2RS, 4R)-2-phenyl-thiazolidine-4-carboxylic acid hexadecylamide [ATCAA-1]”, for which the IC50 in the data set on DU 145 cells was determined as 1.7 ± 0.1 µM; in the data set with PPC-1 cells, 0.4 ± 0.1 µM; with A375 cells, 2.1 ± 0.2 µM; in the data set on B16-F1 cells, 2.2 ± 0.3 µM; with LNCaP cells, 1 ± 0.1 µM; in the data set with CCRF-CEM (Leukemia), 124 nM.
Regarding `O=C(c1cc(O)c(O)c(O)c1)c1csc(-c2ccccc2)n1` [compound 11, (2-Phenyl-thiazol-4-yl)-(3,4,5-trihydroxy-phenyl)-methanone], the “antiproliferative activity (in words)” value in data set [1] is given as “complete loss of antiproliferative activity”. For the same molecule, the “water solubility (in words)” value in “Water solubility” was “water soluble”.
For the molecule `O=C(c1ccccn1)c1csc(-c2ccccc2)n1` [8i, (2-Phenylthiazol-4-yl)-(pyridin-2-yl)-methanone], in [1], the “antiproliferative activity (in words)” value is “total loss of the anti-cancer activity”.
Consider `COc1cc(NC(=O)C2CSC(c3ccccc3)=N2)cc(OC)c1OC` (stereo in doubt) [4b, (4R)-2-Phenyl-N-(3,4,5-trimethoxyphenyl)-4,5-dihydrothiazole-4-carboxamide], for which, in data set [1] (read-out: IC50 over melanoma and prostate cancer cell lines), the IC50 was 3400 to 38300 nM.
On to `COC(=O)c1ccc(-c2nc(C(=O)c3cc(OC)c(OC)c(OC)c3)cs2)cc1` [8s, Methyl-4-[4-(3,4,5-trimethoxybenzoyl)-thiazol-2-yl]-benzoate], for which the “antiproliferative activity (in words)” value in data set [1] is reported as “total loss of potency”.
Same read-out and setting: in the case of `COc1ccccc1C(=O)c1csc(-c2ccccc2)n1` [8d, (2-Methoxyphenyl)(2-phenylthiazol-4-yl)-methanone] it was “weak activity against a certain cell lines”; in that of `COc1cc(NC(=O)[C@@H]2CSC(c3ccccc3)N2)cc(OC)c1OC` (mixture of isomers) [2a, (2RS, 4R)-2-Phenyl-N-(3,4,5-trimethoxyphenyl)thiazolidine-4-carboxamide], “the potency against both cancer cell lines was lost”.
For `COc1ccc(-c2nc(C(=O)c3cc(OC)c(OC)c(OC)c3)cs2)cc1OC` [8o, [2-(3,4-Dimethoxyphenyl)-thiazol-4-yl]-(3,4,5-trimethoxyphenyl)-methanone], the “antiproliferative activity (in words)” value in data set [1] was “comparable antiproliferative activity”.
Turning to `COc1cc(C(=O)c2csc(-c3ccc(C(F)(F)F)cc3)n2)cc(OC)c1OC` [8t, (2-(4-(Trifluoromethyl)-phenyl)-thiazol-4-yl)(3,4,5-trimethoxyphenyl)-methanone], the “antiproliferative activity (in words)” value in data set [1] is reported as “comparable antiproliferative activity”.
Turning to `COc1cc(C(=O)c2csc(-c3ccc(C(=O)O)cc3)n2)cc(OC)c1OC` [8r, 4-[4-(3,4,5-Trimethoxybenzoyl)-thiazol-2-yl]-benzoic acid], in data set [1], the “antiproliferative activity (in words)” value is listed as “total loss of the anti-cancer activity”.

Source of the values: publication PMC2760094 (Journal of medicinal chemistry, 2009).
